Source: US20180179256A1 (priority 2015, published 2018)
“Also recorded” adds a separate entry of the source.

Experiments:
HLA-DR = type: cell-based, human
Normal subject PBMC = type: cell-based, human

Sequence | % Inhibition by HLA-DR blocking Ab (HLA-DR) | Peptide-specific T cell response on blocking HLA-DR (in words) (HLA-DR) | Suppression of T cell response to pool of H7N9 ICS peptides (Normal subject PBMC) | Responses to the pool of IAV peptides (1-4) in presence of peptide (Normal subject PBMC) | Suppression of T cell responses to immunodominant HA peptides from circulating IAV strains (Normal subject PBMC)
AANIIGILHLILWILDRL [H7N9-10] | 68% | only partially inhibited | – | – | –
AVKLYKKLKREMTFHGA [H7N9-9] | 100% | – | did not suppress T cell responses | – | –
DKLYERVKRQLRENAEED [H7N9-8] | 89% | only partially inhibited | – | – | –
IVYWKQWLSLKNLTQ [H7N9-14A] | 100% | – | – | Reduced responses | –
KGILGFVFTLTVPSERGLQ [H7N9-3] | 97% | only partially inhibited | – | – | –
PKYVKSNRLVLATG [IAV-4, reference compound] | 96% | only partially inhibited | – | – | –
PKYVKSTKLRLATG [IAV-1, reference compound] | 100% | – | – | – | –
PRYVKQNTLKLATG [IAV-3, reference compound] | 78% | only partially inhibited | – | – | –
PRYVKQRSLLLATG [H7N9-13] | 100% | – | significantly suppressed T cell response to the pooled peptides; also recorded: significantly decreased | Reduced responses | significantly suppressed T cell response to IAV-3; also recorded: able to suppress responses
PRYVKQSTLKLATG [IAV-2, reference compound] | 73% | only partially inhibited | – | – | –
QITFMQALQLLLEVE [H7N9-12] | 100% | – | – | – | –
QPEWFRNVLSIAPIMFSNK [H7N9-4] | 100% | – | – | – | –
RIDFHWLMLNPNDTVTFS [H7N9-1] | 46% | only partially inhibited | – | – | –
SRKLLLIVQALRDNLEPG [H7N9-11] | increased response | response increased; also recorded: response was absent except when HLA-DR was blocked | – | – | –
WKQWLSLKNTLTQGSL [H7N9-14B] | – | – | – | Reduced responses | –
YAEMKWLLSNTDNAAFPQ [H7N9-2] | 100% | – | – | – | –
